The results in this text go back to article PMC5537602, “TRPA1 channel mediates organophosphate-induced delayed neuropathy” (Cell Discovery, 2017).

One series has as its system hens. The series is classed as in vivo, hen. Particulars: hens. The procedure:
The chosen adult Hyline Brown hens were raised individually in stainless steel wire cages. After 7 days of acclimatization, the chosen hens were randomly divided into groups (n=6–10 for each group). The hens in the delayed neuropathy groups were administered a single dose of 750 mg kg^−1 TOCP and repeated doses of 75 mg kg^−1 malathion by gavage. TOCP and malathion were dissolved in corn oil and administered at 0.65 ml kg^−1. In the HC030031 treatment groups, 100 mg kg^−1 HC030031 was administered by gavage daily beginning at day 0 or day 11. All hens were examined daily for signs of delayed neurotoxicity. A five-point graded scale was used to describe the clinical symptoms of delayed neuropathy, with 0 indicating normal ambulation; (1) suspected ataxia (lack of strength in the legs and tottering); (2) mild ataxia (slow, clumsy and unsteady gait); (3) gross ataxia (waddling gait and staggering and falling despite being active); (4) mild paralysis (typical paralytic posture and lame appearance); and (5) complete paralysis (unable to maintain posture, stand up or move at all), as described previously.

Another series deals with mice. Put plainly: Behavioral testing of mice (paw-licking time after intraplantar injection). The series is classed as in vivo, mouse. The procedure: The chosen mice were allowed to acclimate to the experimental environment for at least 2 h before testing. Intraplantar injection of 5% AITC and 30% malathion (10 μl) was achieved using separate injectors. Spontaneous pain evoked by the compounds was assessed by measuring the time (s) the mice spent on licking. For the HC030031 groups, 200 mg kg^−1 HC030031 was intragastrically administered, and then the test was conducted after 1 h. The testing phase was divided into two parts: 0–10 min and 11–60 min.

The next series concerns mouse DRG neurons. Put plainly: Single-cell calcium imaging (Fura-2/AM) of isolated DRG neurons. The format is cell-based. The protocol:
DRG neurons were isolated from young C57 BL/6 mice (4–5 weeks). The sections of thoracic and lumbar DRG neurons were rapidly isolated in calcium and magnesium-free PBS with low temperature conditions (ice-bath environment). The isolated tissues were cut into pieces with scissor and incubated for 30 min with 0.1% collagenase and 0.025% trypsin which were diluted by DMEM-F12 at 37 °C. After digestion, neurons were gently dissociated using Pasteur pipettes and then plated onto poly-D-lysine pre-coated glass cover slips. DRG neurons were cultured for 24 h before use.
Calcium influx signals were monitored using the ratio metric fluorescent indicator dye Fura-2/AM at room temperature (23–25 °C). Cells were incubated with 2 μM Fura-2/AM, which was generated by diluting the stock solution with normal external solution, for 30 min at 37 °C. […] The maximum excitation wave length of Fura-2/AM was changed to 340 nm from 380 nm when combined with calcium ions. Fura-2/AM was excited at 340 and 380 nm with a rapid switching monochromator obtained from TILL Photonics, and the mean fluorescence intensity ratios (F340/F380) reflected real-time changes in the concentration of intracellular free calcium ions. The external solution used in the DRG whole-cell patch-clamp recordings was also used for calcium imaging. Solutions were switched using a gravity-fed continuous focal perfusion system.

For a further series, the target named is T1, TRPC4 (Homo sapiens, UniProt Q9UBN4).
T1 construct: expressed in transfected cells; host or cells: HEK293
T1 sequence (Q9UBN4 1-977): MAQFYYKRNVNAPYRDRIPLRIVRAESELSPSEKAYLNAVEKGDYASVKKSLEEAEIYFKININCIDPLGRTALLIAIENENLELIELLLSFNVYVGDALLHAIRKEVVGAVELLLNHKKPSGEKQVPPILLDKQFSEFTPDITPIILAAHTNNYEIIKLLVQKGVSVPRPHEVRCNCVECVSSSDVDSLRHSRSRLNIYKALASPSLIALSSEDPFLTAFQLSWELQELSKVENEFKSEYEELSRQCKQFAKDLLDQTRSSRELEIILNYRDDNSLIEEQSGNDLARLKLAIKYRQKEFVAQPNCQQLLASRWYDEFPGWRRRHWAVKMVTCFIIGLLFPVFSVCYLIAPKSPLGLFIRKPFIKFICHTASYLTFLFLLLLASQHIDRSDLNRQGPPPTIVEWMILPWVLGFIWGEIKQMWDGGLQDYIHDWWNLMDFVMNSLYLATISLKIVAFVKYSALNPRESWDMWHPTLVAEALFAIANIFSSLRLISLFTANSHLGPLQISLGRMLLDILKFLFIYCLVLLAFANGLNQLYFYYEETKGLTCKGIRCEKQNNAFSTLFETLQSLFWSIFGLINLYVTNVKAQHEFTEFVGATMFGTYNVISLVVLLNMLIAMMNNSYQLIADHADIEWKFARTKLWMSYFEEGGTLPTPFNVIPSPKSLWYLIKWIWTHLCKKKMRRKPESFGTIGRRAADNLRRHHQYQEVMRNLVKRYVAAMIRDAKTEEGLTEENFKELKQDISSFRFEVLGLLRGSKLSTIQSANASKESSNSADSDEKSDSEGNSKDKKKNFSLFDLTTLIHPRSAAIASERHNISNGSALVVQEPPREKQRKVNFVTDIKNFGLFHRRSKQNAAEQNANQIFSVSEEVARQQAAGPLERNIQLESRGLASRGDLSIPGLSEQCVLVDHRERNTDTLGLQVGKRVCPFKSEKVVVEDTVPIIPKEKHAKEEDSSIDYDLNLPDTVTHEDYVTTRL
Kind of series: Calcium fluorescence signal, HEK293 cells overexpressing TRPC4. The series is classed as cell-based. Particulars: 10 μM. The protocol:
(§1) Figure S3. Specificity of malathion for TRPA1 channels. (A-F) Time course of the fluorescence signal induced by malathion (Mala, 10 μM) and the indicated positive agonists (10 μM) in HEK293 cells overexpressing TRPV1 (A), TRPV3 (B), TRPV4 (C), TRPM8 (D), TRPC4 (E) and TRPC5 (F) channels. The fluorescence signals are scaled as F/F0. EC indicates external solution. […]
(§2) cells for each tested TRP channel. All bars are presented as the mean ± SEM. […]

For the next series, the target named is T2, TRPV4 (Homo sapiens, UniProt Q9HBA0).
T2 construct: expressed in transfected cells; host or cells: HEK293
Kind of series: Calcium fluorescence signal, HEK293 cells overexpressing TRPV4. Particulars: 10 μM. The format is cell-based. The procedure:
as §1, §2

Setting [1] is: HC030031 200 mg kg−1 per oral, 1 h before test.

T2 sequence (Q9HBA0 whole entry, species assumed): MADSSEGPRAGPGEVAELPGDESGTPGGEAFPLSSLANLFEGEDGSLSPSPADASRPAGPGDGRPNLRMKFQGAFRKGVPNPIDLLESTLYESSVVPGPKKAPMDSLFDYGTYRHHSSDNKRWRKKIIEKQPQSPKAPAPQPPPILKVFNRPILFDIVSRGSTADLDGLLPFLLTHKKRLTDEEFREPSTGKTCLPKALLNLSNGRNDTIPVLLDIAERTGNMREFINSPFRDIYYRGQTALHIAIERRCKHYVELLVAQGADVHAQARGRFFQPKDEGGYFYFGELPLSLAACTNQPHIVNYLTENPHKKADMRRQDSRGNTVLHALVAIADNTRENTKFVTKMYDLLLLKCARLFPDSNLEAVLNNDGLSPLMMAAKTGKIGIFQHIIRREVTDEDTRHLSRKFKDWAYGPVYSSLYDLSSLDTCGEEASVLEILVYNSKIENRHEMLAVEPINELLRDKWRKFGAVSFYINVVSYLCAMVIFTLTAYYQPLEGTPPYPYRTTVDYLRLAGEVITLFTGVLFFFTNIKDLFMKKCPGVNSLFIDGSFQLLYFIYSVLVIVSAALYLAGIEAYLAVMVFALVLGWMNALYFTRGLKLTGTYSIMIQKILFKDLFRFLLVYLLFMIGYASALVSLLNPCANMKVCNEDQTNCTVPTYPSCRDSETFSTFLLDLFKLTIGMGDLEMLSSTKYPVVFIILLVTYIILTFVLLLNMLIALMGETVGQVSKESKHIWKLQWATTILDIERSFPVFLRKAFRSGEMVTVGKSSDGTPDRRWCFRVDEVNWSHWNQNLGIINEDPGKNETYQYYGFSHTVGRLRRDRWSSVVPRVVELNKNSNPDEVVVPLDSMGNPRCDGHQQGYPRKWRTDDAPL

For `CC(C)c1ccc(NC(=O)Cn2cnc3c2c(=O)n(C)c(=O)n3C)cc1` [HC030031], the “effect on clinical signs of delayed neuropathy induced by TOCP or malathion” value with hens (HC030031 100 mg kg−1 daily by gavage from day 0 or day 11) is reported as “significantly alleviated”. Also, in the series with mice (setting [1]), the “effect on AITC-evoked nocifensive behavior” value is reported as “suppressed” and the “effect on malathion-evoked nociception-like behavior” value is recorded as “blocked”.

`CCOC(=O)CC(SP(=S)(OC)OC)C(=O)OCC` (stereo not drawn) [malathion, S-[1,2-bis (ethoxycarbonyl)ethyl] O, O-dimethyl phosphorodithioate]: the “[Ca2+]i response of DRG neurons from Trpa1−/− mice” value in the series on mouse DRG neurons (Trpa1−/− neurons) was “thoroughly unresponsive”. Moreover, the “neurons displaying a robust increase in [Ca2+]i” value with mouse DRG neurons (wild-type small-diameter neurons, sequential application of AITC and malathion, 197/451) is recorded as ~ 44%. The “clinical symptoms of delayed neuropathy” value with hens (malathion 75 mg kg−1 q.d. for 11 days, day 5) was “slow and clumsy gait”. Further, the “activation of TRPC4” value on TRPC4 was “could not activate”. Further, the “nociception-like behavior in Trpa1−/− mice” value in the series with mice (Trpa1−/− mice, 30% malathion intraplantar) is reported as “not observed”. Further, the “nocifensive behavior (paw-licking) after plantar injection” value in the series on mice (WT mice, AITC 10 μl 5%, malathion 10 μl 30%, intraplantar) is given as “nociception-like behavior”. For the same molecule, on TRPV4, the “activation of TRPV4” value is “could not activate”.
